Tests used:
HeLa cells [1] = test: Cytosolic TAMRA-R8 concentration (digitonin fractionation, fluorescence); assay type: cell-based; details: Extended Data Fig.5d; for concentration_uM, mean: mean of 4 experiments
Description: Cytosolic extracts were obtained according to a previously described protocol[55] by incubation with digitonin, a steroidal saponin that preferentially permeabilizes cholesterol-rich membranes, such as the plasma membrane, with minor effects on intracellular membranes. […] Cells were incubated on ice with 600 µl of 35 µg ml^−1 digitonin in PBS Ca/Mg for 10 min, the supernatant with the cytosolic fraction collected and cells washed with 200 µl of PBS Ca/Mg, combining this supernatant with the previous extract. The non-cytosolic fraction was collected by incubation of the cells with 800 µl of 1% Triton X-100 in PBS. […] For the complementary HPLC analysis, phosphate buffer was replaced by TBS (20 mM Tris–HCl, pH 7.2, 150 mM NaCl, 0.5 mM CaCl2, 0.5 mM MgCl2) and digitonin extraction was performed as indicated above. An aliquot of these extracts was used for β-hexosaminidase activity determination. Cytosolic extracts were lyophilized and resuspended in 1:10 volumes of H2O:CH3CN 1:1 with 1% TFA, and analysed by HPLC (RP-HPLC Agilent Luna 5U C18 100 Å, H2O (0.1% TFA)/CH3CN (0.1% TFA) 100:0 (0→5 min); 100:0→5:95 (5→20 min)) by monitoring the 555-nm absorbance of the TAMRA chromophore.
The quality of fractionation was assessed by lysosomal β-hexosaminidase activity, using 4-nitrophenyl 2-acetamido-2-deoxy-β-D-glucopyranoside as substrate. Briefly, 20 µl of extract was incubated with 80 µl of 7.5 mM substrate in 100 mM citrate buffer, pH 4.7, for 40 min at 37 °C, and the reaction was stopped by addition of 200 µl of 0.2 M Tris solution. Absorbance at 405 nm was measured in a plate reader. As blank, wells containing only the substrate were used. […]

HeLa cells [2] = test: Flow cytometry of total TAMRA-R8 uptake; assay type: cell-based; details: for mean_of_medians: Extended Data Fig.5a, mean of n = 3
Description: HeLa cells were seeded at 10,000 cells per well in 96-well plates. The next day, they were incubated for 1 h with the indicated compounds diluted in HKR. Cells were subsequently washed for 5 min with HKR containing 0.1 mg ml^−1 heparin, washed again with HKR and trypsinized. Trypsin was neutralized with PBS containing 2% FBS and 5 mM EDTA. TAMRA fluorescence was excited with a green laser (532 nm) and measured on a Guava easyCyte BG HT collecting the emission at 620/52 nm (Orange-G channel) and using InCyte v.3.2 (GuavaSoft, Millipore). Data were analysed with R (v.4.0.3)[54] and the packages CytoExploreR (v.1.0.8)[56] and ggcyto (v.1.18.0)[57] Cells with typical FSC and SSC parameters were selected and the median fluorescence intensity calculated for each sample. Each condition was measured in triplicate.
Cells were incubated with 1 µM peptide, in the absence or presence of 10 µM cluster for 1 h. […] After medium removal and solubilization with DMSO, the absorbance at 570 nm was measured. Values were normalized to the untreated cell control (100%). Data are mean ± s.d. of three replicates. Source data

[3] = Dynamic light scattering (vesicle size, cargo-carrier aggregates); assay type: physicochemical
Description: DLS experiments were carried out on a Malvern Instruments DTS Nano 2000 Zeta-Sizer.
Extended Data Fig. 1 Assays testing for stability vs leakage of the vesicles. a, Response of the HPTS/DPX assay towards a membrane-disrupting agent and chemical structures of the fluorescent dye HPTS and the quencher DPX. In this assay, large unilamellar vesicles are loaded with the HPTS/DPX probe/quencher pair, such that the fluorescence of HPTS is quenched. […] The cluster B12I12^2− (red trace) was identified as lytic agent because the mere addition of the cluster led to a fluorescence increase. […] In this assay, large unilamellar vesicles are loaded with CF at high concentration, such that the fluorescence is quenched. […] The cluster B12I12^2− (red trace) was identified as lytic agent because its mere addition led to a fluorescence increase. […] In b, e and f, Triton X-100 was added at t = 600 s to induce vesicle lysis and allow data normalization. Source data

[4] = U-tube transport experiment across a bulk chloroform layer; details: trans: 2 mM HPTS, pH 7.4
From the text: U-tube transport experiments, across a bulk chloroform layer, unambiguously confirmed that the brominated cluster served as a non-covalent carrier across a hydrophobic bulk barrier (Extended Data Fig. 2a, b). To quantitatively characterize the transport efficiency of the new cluster carriers, the normalized fluorescence responses in the vesicle experiments (Fig. 2b) were plotted against cluster concentration to produce dose–response curves (Fig. 2c and Extended Data Fig. 3a). […] This activity rivals the pyrenebutyrate (1) gold standard in the field (Ea ≈ 5)[18], which we used throughout as a control.
The U-tubes were home-made, similarly to those of Rebek and co-workers[52] and Matile and co-workers[19], and consisted of a small beaker with a central glass barrier separating the two aqueous phases, namely cis ([…]) and trans (receiving phase), but enabling the placement of an interfacing chloroform layer below the cis and trans phases. A 3 ml portion of CHCl3 was located in the U-tube and 1 ml of the cis and trans phases were added. The organic phase was stirred at 700 r.p.m. at room temperature. Aliquots (20 μl) from the aqueous trans phase were taken at different times, diluted to 450 μl with buffer (10 mM Tris, 107 mM NaCl, pH 7.4) and measured by fluorescence. […]

HeLa cells [5] = test: Confocal imaging of TAMRA-R8 / TAMRA-D-R8 / TAMRA uptake in living cells
From the text: Representative images of two biological replicates. […] Scale bars, 50 μm.
Representative images of two biological replicates. […] Source data
(1 picture or pasted object on this page, not shown here)

In the case of B12Br12^2−, the concentration_uM (HeLa cells [1]; 0 uM B12Br12 (no carrier), experiment 1) is reported as 286.3 nM, the concentration_uM (HeLa cells [1]; 0 uM B12Br12 (no carrier), experiment 2) is reported as 345 nM and the concentration_uM (HeLa cells [1]; 0 uM B12Br12 (no carrier), experiment 3) is reported as 274.3 nM. For the same substance, the concentration_uM (HeLa cells [1]; 0 uM B12Br12 (no carrier), experiment 4) was 342.3 nM, the “concentration_uM, mean” value (HeLa cells [1]; 0 uM B12Br12 (no carrier)) was 312 nM and the concentration_uM (HeLa cells [1]; 10 uM B12Br12, experiment 1) was 1393 nM. The concentration_uM (HeLa cells [1]; 10 uM B12Br12, experiment 2) was 1647 nM, the concentration_uM (HeLa cells [1]; 10 uM B12Br12, experiment 3) was 1247 nM and the concentration_uM (HeLa cells [1]; 10 uM B12Br12, experiment 4) was 1117 nM. For the same substance, the “concentration_uM, mean” value (HeLa cells [1]; 10 uM B12Br12) was 1351 nM, the mean_of_medians (HeLa cells [2]; 10 uM cluster, Tm-R8 0 uM) was 56.9232 and the mean_of_medians (HeLa cells [2]; 10 uM cluster, Tm-R8 1 uM) was 648.983. For the same substance, the mean_of_medians (HeLa cells [2]; 50 uM cluster, Tm-R8 0 uM) was 50.2824, the mean_of_medians (HeLa cells [2]; 50 uM cluster, Tm-R8 1 uM) was 905.363 and the “Enhancement of total TAMRA-R8 uptake (flow cytometry)” value (HeLa cells [2]; HeLa, 1 µM TAMRA-R8, 10 or 50 µM cluster, 1 h) was “most active carrier”. The “DLS of combinations of cluster with the different cargos (aggregates)” value [3] was “did not show any detectable signal of particles”, the “Transport of DPX across chloroform, without peptide cargo” value ([4]; cis: 40 μM cluster and 20 mM DPX) was “faster and more efficient transport of DPX” and the “Transport of DPX across chloroform, with peptide cargo” value ([4]; cis: 40 μM cluster, 20 μM WR7, 20 mM DPX, 10 mM Tris, 107 mM NaCl, HPTS quenching) was “the fastest and most efficient transport of DPX”. The “TAMRA-R8 fluorescence pattern in cells in presence of cluster” value (HeLa cells [5]) was “diffuse peptide fluorescence”.
